# Source: article PMC11003925, “Antimicrobial activity and properties of de novo design of short synthetic lipopeptides” (Folia Microbiologica, 2024)
# Residues, ends and D or L forms follow the SMILES beside them. *: point of attachment. Palmitoyl = CCCCCCCCCCCCCCCC(=O)*
# Legend:
# E. coli DBM 3001 = assay type: cell-based
# Procedure: (§1) A Bioscreen C automated microbiology growth curve analysis system (Growth Curves, Piscataway, NJ, USA) was used for the quantitative determination of antimicrobial activity (minimal inhibitory concentration, MIC) of PAL/LCA-peptides. Optical density was measured with a wide bandpass filter (wavelength range 420–580 nm) at regular intervals and temperatures. This assay was performed in a special microtiter plate (10 × 10 wells) that allowed the simultaneous testing of a large number of samples against several microorganisms. The total testing volume was 100 µL, obtained by mixing 10 µL of microbial culture with OD600 equal to 0.1 with growth medium and a solution of the tested compounds. The positive controls were vancomycin and tetracycline for Bacillus subtilis (100 µg/mL) for Gram-positive bacteria, kanamycin, and tetracycline for Acinetobacter baumannii (100 µg/mL) for Gram-negative bacteria, and clotrimazole or amphotericin (100 µg/mL) for fungi. The maximal concentration of tested lipoproteins was 1 mg/mL. A pure growth medium was used as the negative control. The measurement period was 25 h. The lowest concentration with a 100% inhibition effect for 24 h of incubation was chosen as the MIC. The antibacterial activity of each compound was expressed as the minimum inhibitory concentration MIC (MIC is the lowest concentration of the compound needed to inhibit the growth of bacterial cells) and IC50 (IC50 is the concentration of the compound needed to inhibit the growth of bacterial cells by 50%).
# E. faecalis DBM 3075 = assay type: cell-based
# Procedure: as §1
# HEK293T = test: Cytotoxicity assay (xCELLigence impedance); assay type: cell-based, human; details: 24 h exposure
# Procedure: (§2) Experiments were carried out using an xCELLigence RTCA DP Instrument (Roche Diagnostics GmbH, Mannheim, Germany) which was placed into an incubator (37 °C and 5% CO2). Cell proliferation and cytotoxicity experiments were performed using modified 16-well plates (E-plate, Roche Diagnostics GmbH, Mannheim, Germany). Microelectrodes were attached to the bottom of the wells for the impedance-based detection of attachment, spreading, and proliferation of the cells (Stoddart [2011]). This system monitors cellular events in real time without the incorporation of labels by measuring electrical impedance across an interdigitated microelectrode integrated into the bottom of this special tissue culture plate. This impedance measurement improves upon conventional endpoint assays and provides quantitative information about the biological status of the cells, including cell number, adhesion, viability, and morphology. Ninety microliters of cultivation medium was used for the blank sample, and subsequently, 100 µL of HepG2 or HEK293T cell suspension (7 × 10^5 cells/mL) was added and placed into the incubator (37 °C, 95% humidity, 5% CO2). […] Chrysophsin-3 at a concentration of 100 µg/mL was used as a positive control and solvent (deionized water) as a negative control. Subsequent incubation was performed for at least an additional 24 h. The result of the measurement was viability curves. After the measurement, percentages of tissue culture growth inhibition were calculated for all the tested substances, as follows: %inhibition=(1-(ΔϕCIsample)/(ΔϕCIcontrol))·100
# (§3) Δ∅CIsample … the difference between the first and last average CI (cell index) values of the tissue culture in the presence of the tested sample.
# (§4) Δ∅CIcontrol … the difference between the first and last average CI values of the tissue culture itself.
# HepG2 = test: Cytotoxicity assay (xCELLigence impedance); assay type: cell-based, human; details: 24 h exposure
# Procedure: as §2, §3, §4
structure (smiles),measurement,setting,value
"CCCCCCCCCCCCCCCC(=O)N[C@@H](CC(C)C)C(=O)N[C@H](C(=O)N[C@@H](CCCCN)C(=O)N[C@@H](CCCNC(=N)N)C(=O)N[C@@H](C)C(=O)NCC(N)=O)C(C)C [SHP-1.2, PAL-LVKRAG-NH2] (Palmitoyl-LVKRAG-NH2)",MIC,"E. coli DBM 3001; DBM 3001, 24 h",78.9 µg/mL
same,IC50,"E. coli DBM 3001; DBM 3001, 25 h",100.0 µg/mL
same,MIC,"E. faecalis DBM 3075; DBM 3075, 24 h",32.6 µg/mL
same,IC50,"E. faecalis DBM 3075; DBM 3075, 25 h",40 µg/mL
same,% inhibition,HEK293T; c 50 µg/mL,37.6 ± 5.6%
same,% inhibition,HEK293T; c 100 µg/mL,77.8 ± 11.7%
same,% inhibition,HEK293T; c 200 µg/mL,73.1 ± 11.0%
same,% inhibition,HepG2; c 50 µg/mL,4.1 ± 0.6%
same,% inhibition,HepG2; c 100 µg/mL,42.2 ± 6.3%
same,% inhibition,HepG2; c 200 µg/mL,67.9 ± 10.2%
